From patent US4895933A, “New antitumor agent obtained by microbial stereoselective reduction of 4'-deoxy-4'-iododoxorubicin” (Farmitalia Carlo Erba S.p.A., priority 1987, dated 1990)
≈ marks a conversion by molar mass, not a printed value. Read-outs that look alike come from different tables or passages of the source.

Columns and labels:
HeLa cells = assay: in vitro cytotoxic activity, HeLa cells colony formation; assay type: cell-based, human; conditions: for IC50: HeLa, read-out: ID50 (dose giving 50% reduction of cell number in comparison with untreated controls)
Excerpt: ^(a) Dose giving 50% reduction of cell number in comparison with […]

P388 leukemia cells = assay: in vitro cytotoxic activity, P388 cells colony formation; assay type: cell-based; conditions: for IC50: Mus musculus
Excerpt: ^(a) Dose giving 50% reduction of cell number in comparison with
^(c) P388 leukemia cells.

[1] = test system: disseminated Gross leukemia; assay: in vivo antitumor activity against disseminated Gross leukemia; set-up: species or system C3H mice; conditions: for Toxic deaths (evaluated on the basis of autopsy findings on dead mice): C3H mice; for T/C % (median survival time of treated mice/median survival time of controls × 100): day after tumor injection, in parentheses: single experiments
Experimental: The "in vivo" antitumor activity, FCE 24883 (II) was tested against disseminated Gross leukemia. C3H mice were injected intravenously with 2.10^6 cell/mouse and treated with compounds under study 24 hours after the tumor injection.
^(a) C3H mice were injected i.v. with 2 × 10^6 leukemia
cells and treated i.v. with the compounds the day after the tumor
^(b) (Median survival time of treated mice/median survival time of
^(c) Evaluated on the basis of autopsy findings on dead mice.

solubility = assay type: physicochemical
experimental tumors = assay: activity on experimental tumors (general statement); conditions: in vivo
[2] = human cervix epithelioid carcinoma cells
[3] = P388 leukemia cells, read-out: ID50 (dose giving 50% reduction of cell number in comparison with untreated controls)

Compound: COc1cccc2c1C(=O)c1c(O)c3c(c(O)c1C2=O)C[C@@](O)(C(=O)CO)C[C@@H]3O[C@H]1C[C@H](N)[C@H](O)[C@H](C)O1 [DX, Doxorubicin]
- IC50 (HeLa cells; Homo sapiens): 10.8 ng/mL (≈ 0.0199 µM)
- IC50 (P388 leukemia cells; P388, read-out: ID50 (dose giving 50% reduction of cell number in comparison with untreated controls)): 8 ng/mL (≈ 0.0147 µM)
- Toxic deaths (evaluated on the basis of autopsy findings on dead mice) ([1]; 10 mg/Kg i.v.): 0/20
- T/C % (median survival time of treated mice/median survival time of controls × 100) ([1]; 10 mg/Kg i.v.): 200 (200, 200) %
- Toxic deaths (evaluated on the basis of autopsy findings on dead mice) ([1]; 13 mg/Kg i.v.): 0/20
- T/C % (median survival time of treated mice/median survival time of controls × 100) ([1]; 13 mg/Kg i.v.): 225 (230, 220) %
- Toxic deaths (evaluated on the basis of autopsy findings on dead mice) ([1]; 16.9 mg/Kg i.v.): 2/20
- T/C % (median survival time of treated mice/median survival time of controls × 100) ([1]; 16.9 mg/Kg i.v.): 250 (260, 240) %

Compound: COc1cccc2c1C(=O)c1c(O)c3c(c(O)c1C2=O)C[C@@](O)(C(=O)CO)C[C@@H]3O[C@H]1C[C@H](N)[C@H](I)[C@H](C)O1 [FCE 21954 (I), 4'-deoxy-4'-iododoxorubicin]
- IC50 (HeLa cells; [2]): 10.4 ng/mL (≈ 0.0159 µM)
- IC50 (P388 leukemia cells; [3]): 2.1 ng/mL (≈ 0.00321 µM)
- Toxic deaths (evaluated on the basis of autopsy findings on dead mice) ([1]; 4 mg/Kg i.v.): 0/20
- T/C % (median survival time of treated mice/median survival time of controls × 100) ([1]; 4 mg/Kg i.v.): 240 (240, 240) %
- Toxic deaths (evaluated on the basis of autopsy findings on dead mice) ([1]; 5.2 mg/Kg i.v.): 4/20
- T/C % (median survival time of treated mice/median survival time of controls × 100) ([1]; 5.2 mg/Kg i.v.): 260 (260, 260) %
- Toxic deaths (evaluated on the basis of autopsy findings on dead mice) ([1]; 6.8 mg/Kg i.v.): 19/20
- T/C % (median survival time of treated mice/median survival time of controls × 100) ([1]; 6.8 mg/Kg i.v.): 145 (160, 130) %

Compound: COc1cccc2c1C(=O)c1c(O)c3c(c(O)c1C2=O)C[C@@](O)([C@@H](O)CO)C[C@@H]3O[C@H]1C[C@H](N)[C@H](I)[C@H](C)O1 [FCE 24883 (II), 4'-deoxy-13(S)-dihydro-4'-iododoxorubicin]
- cytotoxic activity, potency in comparison with compound I and doxorubicin (HeLa cells; HeLa cells, in vitro): as potent as 4'-deoxy-4'-iododoxorubicin (I) and doxorubicin
- IC50 (HeLa cells; [2]): 8 ng/mL (≈ 0.0122 µM)
- IC50 (P388 leukemia cells; [3]): 3.5 ng/mL (≈ 0.00534 µM)
- cytotoxic activity, potency in comparison with compound I and doxorubicin (P388 leukemia cells; P388 cells, in vitro): as potent as 4'-deoxy-4'-iododoxorubicin (I) and doxorubicin
- Toxic deaths (evaluated on the basis of autopsy findings on dead mice) ([1]; 4 mg/Kg i.v.): 0/10
- T/C % (median survival time of treated mice/median survival time of controls × 100) ([1]; 4 mg/Kg i.v.): 180 (180) %
- Toxic deaths (evaluated on the basis of autopsy findings on dead mice) ([1]; 5.2 mg/Kg i.v.): 0/20
- T/C % (median survival time of treated mice/median survival time of controls × 100) ([1]; 5.2 mg/Kg i.v.): 220 (220, 220) %
- Toxic deaths (evaluated on the basis of autopsy findings on dead mice) ([1]; 6.8 mg/Kg i.v.): 0/20
- T/C % (median survival time of treated mice/median survival time of controls × 100) ([1]; 6.8 mg/Kg i.v.): 220 (220, 220) %
- Toxic deaths (evaluated on the basis of autopsy findings on dead mice) ([1]; 8.8 mg/Kg i.v.): 5/9
- T/C % (median survival time of treated mice/median survival time of controls × 100) ([1]; 8.8 mg/Kg i.v.): 140 (140) %
- toxicity displayed ([1]; at the active doses): minor toxicity
- antitumor potency in comparison with compound I ([1]; at the optimal dose): as potent as 4'-deoxy-4'-iododoxorubicin (I)
- antitumor potency in comparison with doxorubicin ([1]; at the optimal dose): more potent than doxorubicin
- antitumor activity, evaluated as median survival time of treated over control mice, in comparison with I and doxorubicin ([1]; mouse, in vivo): can be compared with those of I and doxorubicin
- solubility of the free base (solubility; free base, polar organic solvents and aqueous alcohols): soluble in polar organic solvents and aqueous alcohols
- solubility of the hydrochloride in organic solvents (solubility; hydrochloride, organic solvents): slighty soluble in organic solvents
- solubility of the hydrochloride in water and lower alcohols (solubility; hydrochloride, water and lower alcohols): soluble in water and lower alcohols
- activity on experimental tumors in comparison with compound I (experimental tumors): comparable with that of 4'-deoxy-4'-iododoxorubicin (I)
